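The concentration for 50% growth inhibition is given as GI50. TGI denotes the concentration required for complete inhibition of growth.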
Tests used:
Assay in all cases: growth of human tumour cells (NCI), 384-well format
[1] = tested on: 786-0 renal
[2] = tested on: A498 renal
[3] = tested on: A549 NSCLC
[4] = tested on: ACHN renal
[5] = tested on: BT-549 breast
[6] = tested on: CAKI-1 renal
[7] = tested on: COLO 205 colon
[8] = tested on: DU-145 prostate
[9] = tested on: EKVX NSCLC
[10] = tested on: HCT-15 colon
[11] = tested on: HL-60(TB) leukemia
[12] = tested on: HOP-62 NSCLC
[13] = tested on: HS 578T breast
[14] = tested on: HT29 colon
[15] = tested on: IGROV1 ovarian
[16] = tested on: K-562 leukemia
[17] = tested on: KM12 colon
[18] = tested on: M14 melanoma
[19] = tested on: MALME-3M melanoma
[20] = tested on: MCF7 breast
[21] = tested on: MDA-MB-231 breast
[22] = tested on: MDA-MB-435 melanoma
[23] = tested on: MDA-MB-468 breast
[24] = tested on: MOLT-4 leukemia
[25] = tested on: NCI-H226 lung
[26] = tested on: NCI-H23 lung
[27] = tested on: NCI-H322M lung
[28] = tested on: NCI-H460 NSCLC
[29] = tested on: NCI-H522 lung
[30] = tested on: OVCAR-3 ovarian
[31] = tested on: OVCAR-4 ovarian
[32] = tested on: OVCAR-5 ovarian
[33] = tested on: PC-3 prostate
[34] = tested on: RXF 393 renal
[35] = tested on: SF-268 CNS
[36] = tested on: SF-295 CNS
[37] = tested on: SF-539 CNS
[38] = tested on: SK-MEL-2 melanoma
[39] = tested on: SK-MEL-28 melanoma
[40] = tested on: SK-MEL-5 melanoma
[41] = tested on: SK-OV-3 ovarian
[42] = tested on: SN12C renal
[43] = tested on: SNB-19 CNS
[44] = tested on: SNB-75 CNS
[45] = tested on: SR leukemia
[46] = tested on: SW-620 colon
[47] = tested on: T-47D breast
[48] = tested on: TK-10 renal
[49] = tested on: U251 glioblastoma
[50] = tested on: UACC-257 melanoma
[51] = tested on: UACC-62 melanoma
[52] = tested on: UO-31 renal
[53] = tested on: CCRF-CEM leukemia
[54] = tested on: HCC-2998 colon
[55] = tested on: HCT-116 colon
[56] = tested on: HOP-92 NSCLC
[57] = tested on: LOX IMVI melanoma
[58] = tested on: NCI/ADR-RES ovarian
[59] = tested on: RPMI-8226 leukemia

Molecule `Cc1cccc2nc3cccc(C(=O)NCCNCCNCCNC(=O)c4cccc5nc6cccc(C)c6nc45)c3nc12` has a GI50 [1] of under 0.01 µM, a TGI [1] of 6.78 µM and a GI50 [2] of under 0.01 µM. For the same molecule, the TGI [2] was 2.23 µM, the GI50 [3] was under 0.01 µM and the TGI [3] was 1.51 µM. It also gave a GI50 [4] of under 0.01 µM, a TGI [4] of 1.96 µM and a GI50 [5] of 1.32 µM. The TGI [5] was 2.78 µM, the GI50 [6] was under 0.01 µM and the TGI [6] was 3.14 µM. For the same molecule, the GI50 [7] was under 0.01 µM, the TGI [7] was 1.82 µM and the GI50 [8] was under 0.01 µM. For the same molecule, the TGI [8] was 0.208 µM, the GI50 [9] was 1.23 µM and the TGI [9] was 5.68 µM. It also gave a GI50 [10] of 0.0212 µM, a TGI [10] of over 100 µM and a GI50 [11] of under 0.01 µM. For the same molecule, the TGI [11] was 0.154 µM, the GI50 [12] was under 0.01 µM and the TGI [12] was 1.39 µM. The GI50 [13] was 0.0796 µM, the TGI [13] was 0.265 µM and the GI50 [14] was under 0.01 µM. For the same molecule, the TGI [14] was 0.234 µM, the GI50 [15] was under 0.01 µM and the TGI [15] was 47.7 µM. It also gave a GI50 [16] of under 0.01 µM, a TGI [16] of 1.27 µM and a GI50 [17] of under 0.01 µM. The TGI [17] was 0.109 µM, the GI50 [18] was under 0.01 µM and the TGI [18] was 0.751 µM. The GI50 [19] was 0.107 µM, the TGI [19] was 1.9 µM and the GI50 [20] was under 0.01 µM. It also gave a TGI [20] of 31.2 µM, a GI50 [21] of 0.0115 µM and a TGI [21] of 0.628 µM. The GI50 [22] was 0.133 µM, the TGI [22] was 1.9 µM and the GI50 [23] was under 0.01 µM. It also gave a TGI [23] of 1.21 µM, a GI50 [24] of under 0.01 µM and a GI50 [25] of 0.124 µM. The TGI [25] was 1.19 µM, the GI50 [26] was 0.179 µM and the TGI [26] was 1.76 µM. For the same molecule, the GI50 [27] was 0.139 µM, the TGI [27] was 1.14 µM and the GI50 [28] was under 0.01 µM. It also gave a TGI [28] of 0.229 µM, a GI50 [29] of 0.101 µM and a TGI [29] of 0.221 µM. For the same molecule, the GI50 [30] was under 0.01 µM, the TGI [30] was 2.62 µM and the GI50 [31] was 0.188 µM. For the same molecule, the TGI [31] was 2.02 µM, the GI50 [32] was 0.0623 µM and the TGI [32] was over 100 µM. It also gave a GI50 [33] of 0.0171 µM, a TGI [33] of 2.28 µM and a GI50 [34] of under 0.01 µM. For the same molecule, the TGI [34] was 0.231 µM, the GI50 [35] was 0.0757 µM and the TGI [35] was 0.318 µM. It also gave a GI50 [36] of under 0.01 µM, a TGI [36] of 3.08 µM and a GI50 [37] of under 0.01 µM. It also gave a TGI [37] of 0.454 µM, a GI50 [38] of 0.0713 µM and a TGI [38] of 0.209 µM. For the same molecule, the GI50 [39] was 0.51 µM, the TGI [39] was 2.14 µM and the GI50 [40] was under 0.01 µM. It also gave a TGI [40] of 1.21 µM, a GI50 [41] of 0.0289 µM and a TGI [41] of 3.75 µM. The GI50 [42] was 0.109 µM, the TGI [42] was 0.3 µM and the GI50 [43] was 0.245 µM. It also gave a TGI [43] of over 100 µM, a GI50 [44] of 0.127 µM and a TGI [44] of 0.316 µM. It also gave a GI50 [45] of under 0.01 µM, a GI50 [46] of under 0.01 µM and a TGI [46] of 1.71 µM. It also gave a GI50 [47] of 0.564 µM, a TGI [47] of 5.31 µM and a GI50 [48] of under 0.01 µM. For the same molecule, the TGI [48] was 6.44 µM, the GI50 [49] was under 0.01 µM and the TGI [49] was 1.78 µM. It also gave a GI50 [50] of 1.45 µM, a TGI [50] of 3.58 µM and a GI50 [51] of under 0.01 µM. It also gave a TGI [51] of 0.152 µM, a GI50 [52] of 0.047 µM and a TGI [52] of 19.4 µM.

`CN1CC[C@]2(c3cccc(O)c3)CC(=O)/C(=C/c3ccccc3)[C@H]1C2` showed a GI50 [1] of 13.6 µM, a TGI [1] of 26.7 µM and a GI50 [2] of 16.5 µM. The TGI [2] was 30.3 µM, the GI50 [3] was 4.95 µM and the TGI [3] was 16.5 µM. For the same molecule, the GI50 [4] was 12.8 µM, the TGI [4] was 25.7 µM and the GI50 [5] was 5.7 µM. The TGI [5] was 17.7 µM, the GI50 [6] was 8.77 µM and the TGI [6] was 21.1 µM. The GI50 [53] was 11.8 µM, the TGI [53] was 24.3 µM and the GI50 [7] was 15.4 µM. It also gave a TGI [7] of 28.9 µM, a GI50 [8] of 14.2 µM and a TGI [8] of 28.1 µM. For the same molecule, the GI50 [9] was 6.2 µM, the TGI [9] was 20.3 µM and the GI50 [54] was 1.77 µM. The TGI [54] was 14.7 µM, the GI50 [55] was 8.49 µM and the TGI [55] was 20.9 µM. The GI50 [10] was 3.21 µM, the TGI [10] was 13.1 µM and the GI50 [11] was 2.06 µM. The TGI [11] was 4.13 µM, the GI50 [12] was 17 µM and the TGI [12] was 31.3 µM. For the same molecule, the GI50 [56] was 11.6 µM, the TGI [56] was 24 µM and the GI50 [13] was 3.7 µM. For the same molecule, the TGI [13] was 14.5 µM, the GI50 [14] was 13.4 µM and the TGI [14] was 26.8 µM. The GI50 [15] was 14.5 µM, the TGI [15] was 28 µM and the GI50 [16] was 4.3 µM. It also gave a TGI [16] of 18 µM, a GI50 [17] of 4.77 µM and a TGI [17] of 16.4 µM. The GI50 [57] was 12 µM, the TGI [57] was 24.5 µM and the GI50 [18] was 12.7 µM. The TGI [18] was 25.5 µM, the GI50 [19] was 6.65 µM and the TGI [19] was 18.9 µM. It also gave a GI50 [20] of 11.5 µM, a TGI [20] of 23.9 µM and a GI50 [21] of 9.42 µM. The TGI [21] was 22.1 µM, the GI50 [22] was 4.41 µM and the TGI [22] was 16.2 µM. The GI50 [23] was 13.4 µM, the TGI [23] was 26.4 µM and the GI50 [24] was 6.77 µM. The TGI [24] was 19.8 µM, the GI50 [25] was 18.1 µM and the TGI [25] was 32.1 µM. The GI50 [26] was 12 µM, the TGI [26] was 26.4 µM and the GI50 [27] was 5.86 µM. For the same molecule, the TGI [27] was 18.6 µM, the GI50 [28] was 4.05 µM and the TGI [28] was 15.2 µM. The GI50 [29] was 0.414 µM, the TGI [29] was 2.38 µM and the GI50 [58] was 11.1 µM. The TGI [58] was 27.8 µM, the GI50 [30] was 4.8 µM and the TGI [30] was 15.7 µM. It also gave a GI50 [31] of 14.8 µM, a TGI [31] of 28.2 µM and a GI50 [32] of 17.6 µM. It also gave a TGI [32] of 31.8 µM, a GI50 [33] of 10 µM and a TGI [33] of 21.9 µM. It also gave a GI50 [59] of 1.86 µM, a TGI [59] of 3.77 µM and a GI50 [34] of 3.86 µM. It also gave a TGI [34] of 14.5 µM, a GI50 [35] of 11.9 µM and a TGI [35] of 24.3 µM. The GI50 [36] was 16.2 µM, the TGI [36] was 30.1 µM and the GI50 [37] was 6.7 µM. The TGI [37] was 19.6 µM, the GI50 [38] was 21.1 µM and the TGI [38] was 35.6 µM. The GI50 [39] was 10.7 µM, the TGI [39] was 22.8 µM and the GI50 [40] was 4.91 µM. For the same molecule, the TGI [40] was 15.7 µM, the GI50 [41] was 5.01 µM and the TGI [41] was 16.6 µM. The GI50 [42] was 13.6 µM, the TGI [42] was 26.9 µM and the GI50 [43] was 15 µM. The TGI [43] was 29 µM, the GI50 [44] was 6.43 µM and the TGI [44] was 18.8 µM. For the same molecule, the GI50 [45] was 1.16 µM, the TGI [45] was 3.15 µM and the GI50 [46] was 5.35 µM. For the same molecule, the TGI [46] was 16.5 µM, the GI50 [47] was 11.8 µM and the TGI [47] was 24.5 µM. It also gave a GI50 [48] of 14.9 µM, a TGI [48] of 28.3 µM and a GI50 [49] of 4.11 µM. It also gave a TGI [49] of 15.5 µM, a GI50 [50] of 3.9 µM and a TGI [50] of 13.7 µM. It also gave a GI50 [51] of 10.5 µM and a TGI [51] of 22.5 µM.
